From publication PMC4171615, “Discovery of selective inhibitors of Glutaminase-2, which inhibit mTORC1, activate autophagy and inhibit proliferation in cancer cells” (Oncotarget, 2014) come the findings set out here.

A short description of data set [1]: Carcinoma cell growth inhibition (cytotoxicity), A549. Conditions: human, A549 lung carcinoma cells.
Description: (§1) The cancer cell lines including HepG2 and A549 were obtained from American Type Culture Collection (Rockville, MD). The cells were cultured in DMEM medium with 10% FBS (v/v) and penicillin (100 units/ml)/ streptomycin (100 mg/ml). Cultures were maintained in a humidified incubator at 37°C in 5% CO2/95% air. Dulbecco's Modified Eagle Medium (DMEM), fetal bovine serum (FBS), penicillin, streptomycin, and all other tissue culture reagents were obtained from GIBCO/BRL Life Technologies (Grand Island, NY).
(§2) A549 lung carcinoma and HepG2 hepatocarcinoma cells were seeded at 4000 and 10000 cells/well respectively in 96-well plates, as previously described for cell growth inhibition assay [27, 44].
The target of the next data set is T1, human GAB (Homo sapiens, UniProt Q9UI32).
T1 construct: Equivalent construct of GAB (Pro56-Val602) was amplified from the cDNA clone; His-tag (N); made in house; host or cells: Escherichia coli C41(DE3)pLysS
T1 sequence (Q9UI32 56-602): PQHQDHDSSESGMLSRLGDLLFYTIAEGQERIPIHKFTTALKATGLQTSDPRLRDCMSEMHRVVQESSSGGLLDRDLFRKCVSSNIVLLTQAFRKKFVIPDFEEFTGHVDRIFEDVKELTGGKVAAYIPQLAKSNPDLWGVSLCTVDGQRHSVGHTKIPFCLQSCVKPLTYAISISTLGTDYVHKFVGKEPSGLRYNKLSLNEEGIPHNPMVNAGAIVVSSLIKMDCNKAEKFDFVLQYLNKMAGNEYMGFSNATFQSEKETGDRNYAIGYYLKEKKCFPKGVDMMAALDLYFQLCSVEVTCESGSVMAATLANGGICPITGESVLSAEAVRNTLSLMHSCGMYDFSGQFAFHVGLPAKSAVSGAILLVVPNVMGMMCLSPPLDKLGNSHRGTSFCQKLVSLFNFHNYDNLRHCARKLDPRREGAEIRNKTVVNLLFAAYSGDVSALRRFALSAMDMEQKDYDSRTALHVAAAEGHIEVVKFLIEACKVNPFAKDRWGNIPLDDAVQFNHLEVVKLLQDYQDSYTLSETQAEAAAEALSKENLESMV
Description: Two-step glutaminase activity assay, purified recombinant GAB. The note with it: recombinant wild-type GAB, absence of phosphate. Format: biochemical. The method, then: Equivalent construct of GAB […]) was amplified from the cDNA clone MGC: 195512 IMAGE: 100066375 (Invitrogen Inc., USA). The sequences of the primers were: [NT] (BamHI) and [NT] (Notl). The resultant GAB-expression vector, pET28a(+)-GAB, was transformed into Escherichia coli strain […] Biotech Co., Taiwan). The expression protocol was followed as that protocol of KGA construct. The cells after induction were collected and resuspended in lysis buffer (50 mM Tris-HCl pH 8.5, 500 mM NaCl, 10% glycerol, and 10 mM β-ME) for sonication. […] His-tagged GAB was eluted with lysis buffer containing 200 mM imidazole. The eluted GAB was exchanged to 20 mM Tris-HCl (pH 8.0), 300 mM NaCl, 50% glycerol, and 2 mM dithiothreitol by using a PD-10 Desalting column (GE Healthcare). Human glutaminase activity was measured using a two-step assay as described previously. A microtiter assay format was used to facilitate the collection of multiple data points. […] Samples were incubated at 25°C for 10 min and then 10 μl of 200 mM glutamine were added to the reaction mix. After adding glutamine, the reactions were incubated at 37°C for 60 min and then quenched by the addition of 10 μl of 0.6 M HCl. Subsequently, 100 μl of a second reaction mixture (3.7 units of purified bovine liver glutamate dehydrogenase, 160 mM Tris/acetate [pH 9.4], 400 mM hydrazine, 5 mM ADP and 2 mM NAD^+) was added to the stopped first reaction mixture and incubated for 30 min at 25°C. The absorbance at 340 nm was measured using a Wallac Victor2V plate reader (PerkinElmer), fitted with a 340 nm excitation filter. Sample absorbance was measured against a blank, containing no human glutaminase. The kinetic constants Km and Vmax were determined by using Kaleida Graph software (Synergy Software) to calculate a non-linear least-squares fit for all the data points to the Michaelis-Menten equation.

In the next data set the target is T2, human KGA (Homo sapiens, UniProt O94925).
T2 construct: a KGA cDNA fragment of 1644 bp (residues Leu123-Leu669); His-tag (N); made in house; host or cells: Escherichia coli BL21(DE3)pLysS
T2 sequence (O94925 123-669): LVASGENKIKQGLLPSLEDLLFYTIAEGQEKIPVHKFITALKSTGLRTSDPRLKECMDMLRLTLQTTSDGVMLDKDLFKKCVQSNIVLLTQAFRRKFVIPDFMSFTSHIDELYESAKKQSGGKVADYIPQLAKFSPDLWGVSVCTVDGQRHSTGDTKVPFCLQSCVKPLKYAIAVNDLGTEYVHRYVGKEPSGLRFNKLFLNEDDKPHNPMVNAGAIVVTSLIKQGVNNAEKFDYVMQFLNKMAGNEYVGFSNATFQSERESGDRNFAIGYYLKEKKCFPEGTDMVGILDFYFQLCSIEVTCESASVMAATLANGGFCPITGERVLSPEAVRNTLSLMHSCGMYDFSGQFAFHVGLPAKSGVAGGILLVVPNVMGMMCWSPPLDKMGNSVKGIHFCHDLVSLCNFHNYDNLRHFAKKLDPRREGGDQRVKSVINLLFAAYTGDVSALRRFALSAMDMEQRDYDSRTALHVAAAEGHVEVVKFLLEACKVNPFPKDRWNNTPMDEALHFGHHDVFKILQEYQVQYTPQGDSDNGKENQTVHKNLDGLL
The data set can be described thus: Two-step glutaminase activity assay, purified recombinant KGA. Conditions: recombinant wild-type KGA, absence of phosphate. Format: biochemical. The method, then:
The cDNA fragment of KGA digested with BamHI and NotI at each end was ligated into the pET28a(+) vector (Novagen) and expressed as a his-tag fusion. Escherichia coli strain BL21(DE3)pLysS was transformed with the resulting plasmid, pET28a(+)-KGA, and then cultured in Luria-Bertani broth medium in the presence of kanamycin. […] The cells were harvested by centrifugation at 10,000 rpm for 15 min at 4°C and resuspended in lysis buffer (5 mM Tris-HCl [pH 8.0], 50 mM NaH2PO4, 300 mM NaCl and 10 mM imidazole) for sonication. […] The eluted protein was exchanged to 20 mM Tris-HCl (pH 8.0), 300 mM NaCl, 10% glycerol, and 2 mM dithiothreitol by using a PD-10 Desalting column (GE Healthcare). The concentration of the purified protein was determined by use of the Bio-Rad protein assay reagent with a standard curve plotted against bovine serum albumin. […] A microtiter assay format was used to facilitate the collection of multiple data points. […] Samples were incubated at 25°C for 10 min and then 10 μl of 200 mM glutamine were added to the reaction mix. After adding glutamine, the reactions were incubated at 37°C for 60 min and then quenched by the addition of 10 μl of 0.6 M HCl. Subsequently, 100 μl of a second reaction mixture (3.7 units of purified bovine liver glutamate dehydrogenase, 160 mM Tris/acetate [pH 9.4], 400 mM hydrazine, 5 mM ADP and 2 mM NAD^+) was added to the stopped first reaction mixture and incubated for 30 min at 25°C. The absorbance at 340 nm was measured using a Wallac Victor2V plate reader (PerkinElmer), fitted with a 340 nm excitation filter. Sample absorbance was measured against a blank, containing no human glutaminase. The kinetic constants Km and Vmax were determined by using Kaleida Graph software (Synergy Software) to calculate a non-linear least-squares fit for all the data points to the Michaelis-Menten equation.

Data set [2] in a line: Carcinoma cell growth inhibition (cytotoxicity), HepG2. Conditions: human, HepG2 hepatocarcinoma cells.
Description: as §1, §2
Data set [3] is described as follows: in vitro. Conditions: human.
Description: as §1, §2
Data set [4] is described as follows: in vitro. Conditions: human. This is another data set of the same source.
Description: as §1, §2
A further data set deals with AMPK. The data set can be described thus: Western blot of AMPK_ULK1 axis signaling in HepG2 cells. Format: cell-based, human. Conditions: co-treatment with AV-1.
Another data set concerns mTORC1. Description: Western blot of mTORC1 components and downstream targets in HepG2 cells. The note with it: co-treatment with AV-1. Format: cell-based, human.
Another data set concerns HepG2 cells. The data set can be described thus: Colony (focus) formation assay, HepG2. Format: cell-based, human. The note with it: HepG2, 21-day treatment.

Structures are written as SMILES.

Description for AMPK: (§3) The cells were cultured in DMEM medium with 10% FBS (v/v) and penicillin (100 units/ml)/ streptomycin (100 mg/ml). Cultures were maintained in a humidified incubator at 37°C in 5% CO2/95% air. Dulbecco's Modified Eagle Medium (DMEM), fetal bovine serum (FBS), penicillin, streptomycin, and all other tissue culture reagents were obtained from GIBCO/BRL Life Technologies (Grand Island, NY). Antibodies to GAPDH, caspase 3, LC3B, p-ULK1(S317), p-ULK1(S757), Beclin1, p-BCL2(S70), p70S6K, p-p70S6K(T389), 4E-BP1, α-tubulin, 4E-BP, p-4E-BP(S65), p-eIF4B(S422), mTOR, p-mTOR(S2481), p-mTOR(S2448), p-Raptor(S792), Tuberin, p-Tuberin(T1462), p-Tuberin(T1387), p-AMPK(T172) and p-AMPK(S108) were from Cell Signaling Technology; antibody to p-Beclin1(S15) was from Abbiotec; antibodies to KGA and Raptor were from Abcam; antibodies to BCL2 were from Upstate Biotechnology; antibodies to α-tubulin were from Chemicon International; antibodies to ULK1, β-tublin and AMPK were from GeneTex; antibodies to GAB were from abnova and Gene Tex; antibodies to GAC were from ProteinTech Group; antibodies to p-mTOR(S2446) and AMPK were from Millipore; anti-mouse and anti-rabbit IgGs were obtained from PerkinElmer. […] Compound C was obtained from Sigma–Aldrich (St. Louis, MO). Western blotting was performed as described [40].
Description for mTORC1: as §3

For orientation: IC50 means the concentration that inhibits the measured activity by half. As for `CCCCCCCCCCCCCC(Cc1cc(OC(C)=O)cc(OC)c1O)OC(C)=O` (centres unmarked) [AV-11], the CC50 in data set [1] was found to be 5 ± 0.8 µM; in data set [2], 5.2 ± 0.3 µM. For the same molecule, the IC50 is 5.7 ± 1.1 µM on human GAB and 69 ± 3.1 µM at human KGA.
Take `CCCCCCCCCCCC(CC1=C(O)C(=O)C=C(OC)C1=O)OC(C)=O` (centres unmarked) [AV-4]: the CC50 in [1] and in data set [2] was > 50 µM each time.
Turning to `CCCCCCCCCCCCCC(O)Cc1cc(O)cc(OC)c1` (centres unmarked) [AV-12], the CC50 in data set [1] and in [2] was > 50 µM each time. Besides, the half-maximal inhibitory concentration (IC50) on human GAB turned out to be 7.6 ± 2 µM; at human KGA, 52.4 ± 15.5 µM.
Regarding `CCCCCCCc1cc(O)cc(OC)c1` [AV-13], the values for the CC50 in [1] and in data set [2] were 35.5 ± 2.6 µM and 36.9 ± 2 µM, respectively. At human KGA, the 50% inhibitory concentration (IC50) amounted to 52.7 ± 2.7 µM.
Turning to `[N-]=[N+]=CC(=O)CC[C@H](N)C(=O)O` [DON, reference compound], the concentration for half-maximal inhibition (IC50) at human KGA was found to be 59.9 ± 8.8 µM.
For the molecule `CCCCCCCC/C=C\CCCCCCCc1cc(O)c(C)c(O)c1` [AK-3], the IC50 on human GAB was 2.7 µM; on human KGA it was 76.9 ± 0.8 µM.
As to `Cc1c(O)cc(CCCCCCC/C=C\CCCCCCCc2cc(O)c(C)c(O)c2)cc1O` [AK-7], the CC50 in data set [1] and in data set [2] was > 100 µM throughout. Further, the IC50 on human GAB came out at 2.9 ± 0.8 µM; at human KGA, 17.5 ± 2.6 µM.
With `Cc1c(O)cc(CCCCCCC/C=C\CCCCCCCc2cc(O)cc(O)c2)cc1O` [AK-9], the IC50 on human GAB was 2.3 ± 0.5 µM; at human KGA it was 11.9 ± 1.2 µM.
Regarding `CCCCCCCCCCCC(Cc1cc(O)cc(OC)c1O)OC(C)=O` (centres unmarked) [AV-8], the CC50 was 11.6 ± 0.4 µM in [1] and 18.8 ± 0.7 µM in [2].
As to `CCCCCCCCCCCC(Cc1cc(OC(C)=O)cc(OC)c1O)OC(C)=O` (centres unmarked) [AV-9], the CC50 stood at 13 ± 2.1 µM in [1] and 13.7 ± 2.2 µM in data set [2]. Besides, on human GAB, the half-inhibitory concentration (IC50) is 31.7 ± 6.7 µM.
As for `CCCCCCCCCCCCCC1=C(O)C(=O)C=C(OC)C1=O` [AV-7], the CC50 in the data set “in vitro [3]” and in “in vitro [4]” was > 50 µM in each case.
Take `Cc1c(O)cc(CCCCCCC/C=C\CCCCCc2cc(O)cc(O)c2)cc1O` [AK-10]: the IC50 at human GAB was 2.1 ± 0.1 µM; at human KGA, 11.7 ± 1.3 µM.
On to `CCCCCCCCCCCCCC(=O)Cc1cc(O)cc(OC)c1OC(C)=O` [AV-14], for which the CC50 in [1] and in [2] was > 50 µM each time. The IC50 at human GAB was determined as 4.7 ± 1.3 µM; at human KGA, 41 ± 5.2 µM.
For `COc1cc(O)cc(CCCCCCC/C=C\CCCCCCCc2cc(O)cc(O)c2)c1` [AK-11], the IC50 on human GAB came to 2.9 ± 0.5 µM; at human KGA it was 13.4 ± 2.2 µM.
As for `CCCCCCCCCCCC(Cc1c(O)c(OC)cc(O)c1C=O)OC(C)=O` (centres unmarked) [AV-10], the CC50 in data set [1] was 22.1 ± 1.6 µM; in data set [2], 21.2 ± 0.8 µM. Further, the half-inhibitory concentration (IC50) on human GAB is 23.1 ± 4.9 µM.
Turning to `c1cc(-c2cnn3cc(-c4ccc(OCCN5CCCCC5)cc4)cnc23)ccn1` [compound C], the “Effect on the AV-1 decreased phosphorylation of ULK1 Ser757” value with AMPK is “reversed”. The “Effect on AV-1 induced phosphorylation of Raptor at Ser792 and Tuberin at Ser1387” value in the data set on mTORC1 is recorded as “attenuated”.
For the molecule `COc1cc(O)cc(CCCCC/C=C\CCCCCCCc2cc(O)c(C)c(O)c2)c1` [AK-6], the IC50 on human GAB was 2.5 ± 0.3 µM; at human KGA it was 36.7 ± 3.2 µM.
For `COc1cc(O)cc(CCCCCCC/C=C\CCCCCc2cc(O)cc(O)c2)c1` [AK-12], the CC50 was > 100 µM in [1] and 84.6 ± 2.3 µM in data set [2]. The concentration for half-maximal inhibition (IC50) came to 2.9 ± 0.6 µM at human GAB and 9.6 ± 1.2 µM on human KGA.
On to `CCCCCCCCCCCCCC(CC1=C(O)C(=O)C=C(OC)C1=O)OC(C)=O` (centres unmarked) [AV-3], for which the CC50 in data set [1] and in [2] was > 50 µM each time. At human GAB, the half-maximal inhibitory concentration (IC50) worked out at 25.1 ± 4.5 µM.
`O=C(Cc1ccccc1)Nc1nnc(CCSCCc2nnc(NC(=O)Cc3ccccc3)s2)s1` [BPTES] gave a half-maximal inhibitory concentration (IC50) in the data set on HepG2 cells of 2.8 ± 0.4 µM.
For the molecule `CCCCCCCC/C=C\CCCCCCCc1cc(O)cc(O)c1` [AK-1], the values for the concentration for half-maximal inhibition (IC50) on human GAB and at human KGA were 2.9 ± 0.6 µM and 73 ± 3 µM, respectively.
Regarding `COc1cc(O)cc(CCCCCCC/C=C\CCCCCCCc2cc(O)c(C)c(O)c2)c1` [AK-5], the IC50 was determined as 2.3 ± 0.4 µM on human GAB and 70 ± 1.6 µM at human KGA.
Regarding `CCCCCC/C=C\CCCCCCCc1cc(O)c(C)c(O)c1` [AK-4], at human KGA, the IC50 stood at 59.8 ± 4.6 µM.
On to `Cc1c(O)cc(CCCCC/C=C\CCCCCCCc2cc(O)c(C)c(O)c2)cc1O` [AK-8], for which the IC50 at human GAB worked out at 3.1 ± 0.5 µM; on human KGA it was 13.9 ± 1.5 µM.
